# Measured values from patent publication US9828339B2, “Biphenyl derivatives and methods for preparing same” (DONG-A ST CO., LTD, priority 2013, dated 2017).
# Target: human muscarinic M3 receptor (Homo sapiens (Human), UniProt P20309)
# Assay: Binding assay on human muscarinic M3 receptor ([3H]-methyl scopolamine displacement)
# Conditions: membranes overexpressing human M3 receptor, Ki from IC50 by Cheng-Prusoff, read-out: Binding Affinity to M3 Receptor, Ki
# Protocol: [Experimental Example 1] Binding Assay on Human Muscarinic M3 Receptor
# Cell membrane proteins (Perkin Elmer) wherein human muscarinic M3 receptor was overexpressed, [^3H]-methyl scopolamine and test compounds in various concentration were cultured in 0.2 ml of Tris-HCl buffer at 25° C. for 120 minutes. The same was filtered under suction through glass fiber filter (Whatman GF/B), and then the filter was washed 5 times with 1 ml of Tris-HCl buffer. The radioactivity of [^3H]-methyl scopolamine adsorbed on the filter was measured by a liquid scintillation counter. Non-specific binding was evaluated under existence of 5 μM of atropine. Affinity of the compound of the present invention to muscarinic M3 receptor was calculated as the dissociation constant (Ki), which can be calculated from concentration (IC50) of test compounds inhibiting 50% of binding of [^3H]-methyl scopolamine (i.e. labeled ligand) according to Cheng and Prusoff [Cheng and Prusoff, Biochem. Pharmacol., 22, 3099, 1973].
# human muscarinic M3 receptor, sequence (P20309 whole entry): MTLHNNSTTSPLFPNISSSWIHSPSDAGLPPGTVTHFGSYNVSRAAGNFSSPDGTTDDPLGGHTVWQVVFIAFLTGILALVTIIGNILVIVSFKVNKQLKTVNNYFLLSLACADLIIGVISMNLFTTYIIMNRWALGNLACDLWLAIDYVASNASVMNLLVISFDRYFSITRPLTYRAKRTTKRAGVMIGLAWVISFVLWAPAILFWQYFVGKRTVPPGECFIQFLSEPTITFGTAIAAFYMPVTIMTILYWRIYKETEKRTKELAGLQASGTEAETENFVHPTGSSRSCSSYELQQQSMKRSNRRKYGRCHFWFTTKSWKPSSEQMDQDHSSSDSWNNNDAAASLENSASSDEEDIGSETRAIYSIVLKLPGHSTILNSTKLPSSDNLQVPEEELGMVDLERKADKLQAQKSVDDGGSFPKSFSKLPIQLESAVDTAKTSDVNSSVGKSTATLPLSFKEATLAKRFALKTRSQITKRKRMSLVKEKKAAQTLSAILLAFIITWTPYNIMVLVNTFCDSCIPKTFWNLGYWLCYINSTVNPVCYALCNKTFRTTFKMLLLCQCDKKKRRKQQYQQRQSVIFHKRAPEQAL
row,Structure (SMILES),Ki
1,"O=C(Nc1ccccc1-c1ccc(F)cc1)OCC1CCCN1 (stereo in doubt) [Example 88, (S)-pyrrolidin-2-ylmethyl (4′-fluoro-[1,1′-biphenyl]-2-yl)carbamate]",99.7 nM
2,"COc1ccc(-c2ccccc2NC(=O)OCCC2CCCN2C)cc1 (stereo not drawn) [Example 5, 2-(1-methylpyrrolidin-2-yl)ethyl(4′-methoxy-[1,1′-biphenyl]-2-yl)carbamate]",1100 nM
3,"CN1CCCC1CCOC(=O)Nc1ccccc1-c1ccc(Cl)cc1 (stereo not drawn) [Example 7, 2-(1-methylpyrrolidin-2-yl)ethyl(4′-chloro-[1,1′-biphenyl]-2-yl)carbamate]",31.8 nM
4,"CN1CCCC1CCOC(=O)Nc1ccccc1-c1ccc(OC(F)(F)F)cc1 (stereo not drawn) [Example 10, 2-(1-methylpyrrolidin-2-yl)ethyl(4′-trifluoromethoxy-[1,1′-biphenyl]-2-yl)carbamate]",401 nM
5,"CN1CCCC1CCOC(=O)Nc1ccccc1-c1ccc([N+](=O)[O-])cc1 (stereo not drawn) [Example 11, 2-(1-methylpyrrolidin-2-yl)ethyl(4′-nitro-[1,1′-biphenyl]-2-yl)carbamate]",467 nM
6,"CN1CCCC1CCOC(=O)Nc1ccccc1-c1cccc(C(F)(F)F)c1 (stereo not drawn) [Example 12, 2-(1-methylpyrrolidin-2-yl)ethyl(3′-trifluoromethyl-[1,1′-biphenyl]-2-yl)carbamate]",88 nM
7,"CN1CCCC1CCOC(=O)Nc1ccccc1-c1ccc(C(F)(F)F)cc1 (stereo not drawn) [Example 13, 2-(1-methylpyrrolidin-2-yl)ethyl(4′-trifluoromethyl-[1,1′-biphenyl]-2-yl)carbamate]",80.1 nM
8,"Cc1ccc(-c2ccccc2NC(=O)OCCC2CCCN2C)cc1F (stereo not drawn) [Example 14, 2-(1-methylpyrrolidin-2-yl)ethyl((3′-fluoro-4′-methyl)-[1,1′-biphenyl]-2-yl)carbamate]",12.4 nM
9,"CCOc1cccc(-c2ccccc2NC(=O)OCCC2CCCN2C)c1 (stereo not drawn) [Example 16, 2-(1-methylpyrrolidin-2-yl)ethyl(3′-ethoxy-[1,1′-biphenyl]-2-yl)carbamate]",1060 nM
10,"CN1CCCC1CCOC(=O)Nc1ccc(F)cc1-c1cccc(F)c1 (stereo not drawn) [Example 18, 2-(1-methylpyrrolidin-2-yl)ethyl(3′,5-difluoro-[1,1′-biphenyl]-2-yl)carbamate]",6.98 nM
11,"CN1CCCC1CCOC(=O)Nc1ccc(F)cc1-c1cc(F)cc(F)c1 (stereo not drawn) [Example 20, 2-(1-methylpyrrolidin-2-yl)ethyl(3′,5,5′-trifluoro-[1,1′-biphenyl]-2-yl)carbamate]",20.7 nM
12,"CN1CCCC1CCOC(=O)Nc1cc(F)ccc1-c1ccccc1 (stereo not drawn) [Example 23, 2-(1-methylpyrrolidin-2-yl)ethyl(4-fluoro-[1,1′-biphenyl]-2-yl)carbamate]",6.4 nM
13,"CN1CCCC1CCOC(=O)Nc1cc(F)ccc1-c1cccc(F)c1 (stereo not drawn) [Example 24, 2-(1-methylpyrrolidin-2-yl)ethyl(3′,4-difluoro-[1,1′-biphenyl]-2-yl)carbamate]",31 nM
14,"COc1ccc(-c2ccccc2)c(NC(=O)OCCC2CCCN2C)c1 (stereo not drawn) [Example 25, 2-(1-methylpyrrolidin-2-yl)ethyl(4-methoxy-[1,1′-biphenyl]-2-yl)carbamate]",115 nM
15,"Cc1ccc(NC(=O)OCCC2CCCN2C)c(-c2cccc(F)c2)c1 (stereo not drawn) [Example 27, 2-(1-methylpyrrolidin-2-yl)ethyl(3′-fluoro-5-methyl-[1,1′-biphenyl]-2-yl)carbamate]",56.7 nM
16,"CN1CCCC1CCOC(=O)Nc1ccccc1-c1ccc(C#N)cc1 (stereo not drawn) [Example 28, 2-(1-methylpyrrolidin-2-yl)ethyl(4′-cyano-[1,1′-biphenyl]-2-yl)carbamate]",845 nM
17,"CN1CCCC1CCOC(=O)Nc1ccccc1-c1cccc(CCCO)c1 (stereo not drawn) [Example 29, 2-(1-methylpyrrolidin-2-yl)ethyl(3′-(3-hydroxypropyl)-[1,1′-biphenyl]-2-yl)carbamate]",931 nM
18,"CN(C)c1ccc(-c2ccccc2NC(=O)OCCC2CCCN2C)cc1 (stereo not drawn) [Example 30, 2-(1-methylpyrrolidin-2-yl)ethyl(4′-(dimethylamino)-[1,1′-biphenyl]-2-yl)carbamate]",830 nM
